Test results from ChEMBL document CHEMBL4033773, “Improving Metabolic Stability with Deuterium: The Discovery of BMT-052, a Pan-genotypic HCV NS5B Polymerase Inhibitor” (ACS Med Chem Lett, 2017).
One block for each compound: values may come before it.

Tests used:
[1] = Distribution constant, log D of compound at pH 6.5; type: physicochemical; settings: buffer
Cytochrome P450 3A4 = Cytochrome P450 3A4 (Homo sapiens, UniProt P08684); assay: Competitive inhibition of CYP3A4 in human liver microsomes in presence of NADPH by LC-MS/MS analysis; type: ADME
[2] = AUC in cynomolgus monkey at 3 mg/kg, po; type: ADME, organism-based, Macaca fascicularis; settings: in vivo
[3] = Oral bioavailability in cynomolgus monkey at […]; type: ADME, organism-based, Macaca fascicularis; settings: in vivo
[4] = Volume of distribution at steady state in cynomolgus monkey at 1 mg/kg, iv or 3 mg/kg, po; type: ADME, organism-based, Macaca fascicularis; settings: in vivo, read-out: Vdss
[5] = AUC in rat at 6 mg/kg, po; type: ADME, organism-based; settings: in vivo
[6] = Volume of distribution at steady state in rat at 2 mg/kg, iv or 6 mg/kg, po; type: ADME, organism-based; settings: in vivo, read-out: Vdss
[7] = Oral bioavailability in dog at 6 mg/kg; type: ADME, organism-based, Canis lupus familiaris; settings: in vivo
[8] = Clearance in dog at 1 mg/kg, iv or 3 mg/kg, po; type: ADME, organism-based, Canis lupus familiaris; settings: in vivo
[9] = Volume of distribution at steady state in dog at 1 mg/kg, iv or 3 mg/kg, po; type: ADME, organism-based, Canis lupus familiaris; settings: in vivo, read-out: Vdss
[10] = Clearance in rat at 2 mg/kg, iv or 6 mg/kg, po; type: ADME, organism-based; settings: in vivo
[11] = AUC in dog at 3 mg/kg, po; type: ADME, organism-based, Canis lupus familiaris; settings: in vivo
[12] = Clearance in cynomolgus monkey at 1 mg/kg, iv or 3 mg/kg, po; type: ADME, organism-based, Macaca fascicularis; settings: in vivo
[13] = Oral bioavailability in rat at 6 mg/kg; type: ADME, organism-based; settings: in vivo
Hepatitis C virus [14] = assay: Antiviral activity against HCV genotype 1a infected in human HuH7 cells assessed as reduction in viral RNA replication after 3 days by Dual-Glo luciferase reporter gene assay; type: functional, cell-based, Hepacivirus hominis; settings: subtype 1a, Huh-7, 72 h
Hepatitis C virus [15] = assay: Antiviral activity against HCV genotype 1a infected in human HuH7 cells assessed as reduction in viral RNA replication after 3 days in presence of human serum by Dual-Glo luciferase reporter gene assay; type: functional, cell-based, Hepacivirus hominis; settings: subtype 1a, Huh-7, 72 h

Cytochrome P450 3A4, sequence (P08684 whole entry): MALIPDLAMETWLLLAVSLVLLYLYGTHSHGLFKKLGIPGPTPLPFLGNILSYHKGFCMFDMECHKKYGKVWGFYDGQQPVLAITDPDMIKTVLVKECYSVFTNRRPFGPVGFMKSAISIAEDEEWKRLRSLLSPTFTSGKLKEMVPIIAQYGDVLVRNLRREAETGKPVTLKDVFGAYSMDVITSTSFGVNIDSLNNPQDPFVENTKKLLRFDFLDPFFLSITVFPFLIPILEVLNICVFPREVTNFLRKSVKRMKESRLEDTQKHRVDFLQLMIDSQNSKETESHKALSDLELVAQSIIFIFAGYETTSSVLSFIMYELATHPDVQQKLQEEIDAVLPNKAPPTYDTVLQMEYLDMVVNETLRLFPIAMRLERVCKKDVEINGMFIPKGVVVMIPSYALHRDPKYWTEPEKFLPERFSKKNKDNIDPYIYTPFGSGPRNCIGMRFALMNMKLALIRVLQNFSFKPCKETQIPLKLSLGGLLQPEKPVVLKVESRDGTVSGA

logD [1]: 4.43
Compound: CNC(=O)c1c(-c2ccc(F)cc2)oc2nc(CCC(F)(F)F)c(-c3cccc(C(=O)NC(C)(C)c4ncon4)c3)cc12

IC50 (Cytochrome P450 3A4): 440 nM
Compound: CNC(=O)c1c(-c2ccc(F)cc2)oc2nc(CCC(F)(F)F)c(-c3cc(C(=O)NC(C)(C)c4ncon4)c(=O)n(C)c3)cc12

AUC [2]: 16 µM·h
bioavailability [3]: 85%
Vd [4]: 2.3 L/kg
AUC [5]: 95 µM·h
Vd [6]: 11 L/kg
bioavailability [7]: 90%
clearance [8]: 1 mL/min/kg
logD [1]: 3.73
Vd [9]: 2.1 L/kg
clearance [10]: 1.6 mL/min/kg
AUC [11]: 125 µM·h
clearance [12]: 4.7 mL/min/kg
bioavailability [13]: 100%
Compound: [2H]C([2H])([2H])Oc1ncc(-c2cc3c(C(=O)NC)c(-c4ccc(F)cc4)oc3nc2CCC(F)(F)F)cc1C(=O)NC(c1ncon1)(C([2H])([2H])[2H])C([2H])([2H])[2H]

EC50 (Hepatitis C virus [14]): 13 nM
EC50 (Hepatitis C virus [15]): 146 nM
Compound: [2H]C([2H])([2H])C(NC(=O)c1cccc(-c2cc3c(C(=O)NC)c(-c4ccc(F)cc4)oc3nc2CCC(F)(F)F)c1)(c1ncon1)C([2H])([2H])[2H]
